[5mC] = 5-methylcytosine; d = 2'-deoxy (DNA); r = 2'-OH (RNA); f = 2'-fluoro

We go through five substances from patent US20230357761A1, “ACTIVATORS OF TYPE III CAS PROTEINS” (THE REGENTS OF THE UNIVERSITY OF CALIFORNIA, priority 2020, published 2023).

The target of data set [1] is T1, T. thermophilus Csm6 (TtCsm6) (Thermus thermophilus, UniProt Q53W17).
T1 sequence (Q53W17 1-464): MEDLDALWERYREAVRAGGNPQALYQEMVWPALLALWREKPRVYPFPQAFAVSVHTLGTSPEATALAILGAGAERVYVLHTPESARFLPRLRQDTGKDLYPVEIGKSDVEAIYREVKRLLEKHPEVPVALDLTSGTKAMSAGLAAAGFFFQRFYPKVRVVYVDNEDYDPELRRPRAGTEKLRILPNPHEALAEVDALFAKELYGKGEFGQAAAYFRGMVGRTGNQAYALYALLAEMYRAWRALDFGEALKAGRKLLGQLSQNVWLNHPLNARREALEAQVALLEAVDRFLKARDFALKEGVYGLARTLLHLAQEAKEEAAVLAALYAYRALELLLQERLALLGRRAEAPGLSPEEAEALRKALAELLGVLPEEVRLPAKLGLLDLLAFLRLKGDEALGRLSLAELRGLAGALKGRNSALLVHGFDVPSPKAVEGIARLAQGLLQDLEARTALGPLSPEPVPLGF
Description: Cas13-coupled TtCsm6 activation assay, fluorescence of cleaved polyC RNA reporter. Format: biochemical. The following applies: for kinetics of development of fluorescent signal over time / duration and level of fluorescent signal: FIG. 2; for kinetics of development of fluorescent signal over time: 20 nM Cas13 RNP, 100 nM Csm6, 100 pM Cas13 activator [R010], 200 nM C5 reporter, 2 μM Type III accessory nuclease activator, IGI buffer, versus unmodified NCR142; for duration and level of fluorescent signal: same reaction as E1, versus unmodified NCR142, which was used at 4 times the concentration. How it is done:
To test the impact of modifications of the Type III accessory nuclease activators, the following system was used (see FIG. 1). Cas13 ribonucleoprotein complexes (RNP) were assembled using LbuCas13 protein and guides at room temperature at a concentration of 0.5 μM Cas13 in 1× reaction buffer.
In some experiments, the 1× reaction buffer comprised 20 mM HEPES, pH 6.8, 50 mM KCl, 5 mM MgCl2, 100 μg/mL BSA, 0.01% Igepal CA, 2% glycerol (“IGI buffer”) while in other experiments, the 1× reaction buffer comprised 20 mM HEPES, pH 6.8, 50 mM KCl, 5 mM MgCl2, 5% glycerol (“Ott buffer”). Once assembled, the RNPs were diluted with 1× reaction buffer to 10× the final [RNP] in the reaction (200 nM for 20 nM final concentration). Concentrated T. thermophilus Csm6 (TtCsm6) protein was also diluted to 10× the concentration (1 μM for 100 nM final concentration) in 1× reaction buffer. The activator mix was assembled on ice, containing 20× concentration of the Cas13 activator, 20× concentration of the secondary Csm6 activator, and 10× of a polyC RNA reporter (6-FAM-CCCCC-Iowa Black®, Integrated DNA Technologies) in 1× reaction buffer. The proteins were then mixed together to make an RNP/protein master mix in 1× reaction buffer. Volumes to use were determined such that 15 μL of this master mix was added to 5 μL of the activator mix for a final volume of 20 μL for the reaction. Reactions were performed in triplicate. The RNP master mix was equilibrated at room temperature for 10-15 minutes. 15 μL of the RNP/protein master mix was then added to 5 μL of the activator master mix (pre-loaded into 384-well low-volume flat-bottom black assay plate, Corning) to start the reaction. Fluorescence of the unquenched 6-FAM group (excitation 485 nm, emission 535 or 528 nm) was monitored over 1-2 hours (one reading every 1.5 or 2 min) in a Tecan or Biotek Cytation 5 plate reader at 37° C. An increase in fluorescence correlates with dequenching of the FAM due to RNA cleavage by TtCsm6.
NCR142, NCR372, NCR373 and NCR374 were compared in the system described above. Specifically, 20 nM Cas13 RNP (assembled at a ratio of 2:1 guide to protein), 100 nM Csm6, 100 pM Cas13 activator [R010]], 200 nM C5 RNA reporter (i.e., 5′-6-FAM-CCCCC-Iowa Black-3′, Integrated DNA Technologies), 2 μM Type III accessory nuclease activator, 1×IGI buffer were used, with the experiment monitored on a Tecan Spark.
Next, several different 2′-deoxy modified Type III accessory nuclease activators were compared where the activators had 1 to 3 modifications and the modifications were in different locations (see Table 3 and FIG. 4). In these experiments, 20 nM Cas13 RNPs using a guide, GJK073, targeting a short synthetic RNA target, GJK075, was used (see Table 2). In addition, 100 nM Csm6 was used, plus 0 to 200 pM Cas13 activator (GJK075), 2 μM Csm6 activator, 200 nM C5 reporter, and Cas13 1× buffer (IGI). The experiments were carried out at 37° C. in low volume flat-bottom black plates and fluorescence was measured on a Biotek Cytation 5.
The NCR497 activator was also tested over a range of Type III accessory nuclease activator concentrations and Type VI nuclease activator concentrations. In these experiments, 20 nM Cas13 RNPs comprising the NCR316 guide at a ratio of 2:1 protein to guide were used. In addition, 100 nM TtCsm6 and 200 nM C5 reporter was used where the reaction was carried out in low-volume, flat-bottom plates at 37° C. analyzed on a Biotek citation 5. Type VI nuclease activator (aNCR316) was used at 2 pM or 200 pM concentrations.
A Type III accessory nuclease activator comprising a single 2′-fluoro modified nucleotide was also modified to create an activator with a single cleavage location for the Cas13 trans nuclease activity. In this Type III accessory nuclease activator, the poly U stretch was replaced with a single U nucleotide followed by C nucleotides. […]

For another data set, the target named is T2, Csm6 (Thermus thermophilus, UniProt Q53W17).
T2 sequence (Q53W17 1-464): T1 sequence (Q53W17 1-464)
The data set is described as follows: Sensitivity of Cas13 RNA detection with and without Csm6 and its Type III accessory nuclease activator. In kind it is biochemical, T. thermophilus. The following applies: 37° C. The protocol:
In some experiments, the 1× reaction buffer comprised 20 mM HEPES, pH 6.8, 50 mM KCl, 5 mM MgCl2, 100 μg/mL BSA, 0.01% Igepal CA, 2% glycerol (“IGI buffer”) while in other experiments, the 1× reaction buffer comprised 20 mM HEPES, pH 6.8, 50 mM KCl, 5 mM MgCl2, 5% glycerol (“Ott buffer”). Once assembled, the RNPs were diluted with 1× reaction buffer to 10× the final [RNP] in the reaction (200 nM for 20 nM final concentration). Concentrated T. thermophilus Csm6 (TtCsm6) protein was also diluted to 10× the concentration (1 μM for 100 nM final concentration) in 1× reaction buffer. The activator mix was assembled on ice, containing 20× concentration of the Cas13 activator, 20× concentration of the secondary Csm6 activator, and 10× of a polyC RNA reporter (6-FAM-CCCCC-Iowa Black®, Integrated DNA Technologies) in 1× reaction buffer. The proteins were then mixed together to make an RNP/protein master mix in 1× reaction buffer. Volumes to use were determined such that 15 μL of this master mix was added to 5 μL of the activator mix for a final volume of 20 μL for the reaction. […] Fluorescence of the unquenched 6-FAM group (excitation 485 nm, emission 535 or 528 nm) was monitored over 1-2 hours (one reading every 1.5 or 2 min) in a Tecan or Biotek Cytation 5 plate reader at 37° C. An increase in fluorescence correlates with dequenching of the FAM due to RNA cleavage by TtCsm6. […]

As to “AAdAAUUUUUU (AAAAUUUUUU; sugars from the 5' end r2 d1 r7, backbone not given here) [NCR654]”, in data set [1] (FIG. 4, guide GJK073, 0 to 200 pM Cas13 activator GJK075, 2 μM Csm6 activator, 37° C., versus unmodified activators), the “kinetics and signal, 2′-deoxy modified activators” value was “rapid kinetics and were able to achieve a high and stable signal”.
As to “AfAAAUCC (metdC) (metdc) C (AAAAUCCCCC; sugars from the 5' end r1 f1 r5 d2 r1, [5mC] at 8, 9, backbone not given here) [NCR690]”, the “activity of the system” value in data set [1] (FIGS. 8 and 9, activator at 2, 0.2 and 0.1 μM, Cas13 activator at 200 or 2 pM) is given as “robust activity”. Moreover, in data set [1] (FIGS. 8 and 9, compared to NCR497 at the same concentrations), the background signal result is “higher background signal compared to the NCR497”.
“AfAAAUUUUUU (AAAAUUUUUU; sugars from the 5' end r1 f1 r8, backbone not given here) [NCR497]”: the “kinetics, 2′-fluoro modified activators” value in data set [1] (FIG. 5) was “rapid and stable kinetics”. Further, in data set [1] (FIG. 5, compared to the 2′-deoxy modified activators), the “background signal (0 pM Cas13 activator curves)” value is reported as “decreased background signal”. Also, in data set [1] (FIGS. 6 and 7, guide NCR316, 2 pM Type VI nuclease activator aNCR316, versus NCR142 at 2 pM or 200 pM), the “signal in the reaction” value was “better signal”. Further, in the data set with Csm6 (50 nM Cas13 RNP (guides NCR604 and NCR612), 100 nM Csm6, 2 μM NCR497, gblock7 transcript 0-20 pM, Ott buffer), the “limit of detection of the Cas13 activator” value was “approximately 2 fM”. Besides, the “increase in sensitivity when Csm6 reagents were added to the Cas13 detection system” value in the data set with Csm6 (FIG. 10, 200 nM Cas13 RNP (guide NCR316) alone vs plus 100 nM Csm6 and 2 μM NCR497, aNCR316 200 aM to 200 pM, IGI buffer) is 100 fold.
Consider “dAdAdAAUUUUUU (AAAAUUUUUU; sugars from the 5' end d3 r7, backbone not given here) [NCR373]”, for which, in data set [1], the “kinetics of development of fluorescent signal over time” value was “slower kinetics than the unmodified Type III accessory nuclease activator”; the “duration and level of fluorescent signal” value was “longer lived and reached higher levels than the unmodified activator”.
Consider “fAfAfAAUUUUUU (AAAAUUUUUU; sugars from the 5' end f3 r7, backbone not given here) [NCR374]”, for which, in data set [1], the “kinetics of development of fluorescent signal over time” value is listed as “slower kinetics than the unmodified Type III accessory nuclease activator”; the “duration and level of fluorescent signal” value was “longer lived and reached higher levels than the unmodified activator”.
